Structures can show the parent of a compound that is named as a salt. Where two headings read alike, the source gives them in different places.

The source of these data is patent EP0812190B1 (priority 1993, dated 1995).

The test system of data set [1] is haloperidol-induced catalepsy.
Data set [2] addresses T1, MAO-B (Rattus norvegicus, UniProt P19643).
T1 sequence (P19643 1-520): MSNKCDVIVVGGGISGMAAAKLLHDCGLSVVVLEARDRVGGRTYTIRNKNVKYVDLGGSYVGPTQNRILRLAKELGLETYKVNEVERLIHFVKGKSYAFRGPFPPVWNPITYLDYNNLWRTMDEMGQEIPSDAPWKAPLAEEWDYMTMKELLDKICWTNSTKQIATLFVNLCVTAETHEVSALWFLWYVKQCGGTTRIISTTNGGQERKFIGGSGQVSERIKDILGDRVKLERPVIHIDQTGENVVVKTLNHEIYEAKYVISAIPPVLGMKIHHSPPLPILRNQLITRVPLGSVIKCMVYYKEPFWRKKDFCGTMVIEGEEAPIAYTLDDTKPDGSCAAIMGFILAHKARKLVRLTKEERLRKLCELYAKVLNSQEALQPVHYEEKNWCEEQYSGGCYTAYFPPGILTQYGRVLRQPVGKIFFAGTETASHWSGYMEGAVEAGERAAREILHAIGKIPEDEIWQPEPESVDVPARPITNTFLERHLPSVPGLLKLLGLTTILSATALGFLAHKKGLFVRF
Briefly: in vivo. The settings on record: rat. The protocol:
Groups of three rats were used for each dose level of inhibitor, and MAO activity determined in brain and liver using the general technique described above. The amount of protein in each incubation was determined using the Folin-Lowry method, and enzyme activity calculated as nmol of substrate metabolized per hour of incubation for each mg of protein. Activity of MAO in tissues from animals treated with inhibitors was expressed as a percentage of the enzyme activity in a group of control animals administered vehicle (water for oral administration, 0.9% saline for ip injection) and killed as above.

Data set [3] concerns heart rate, blood pressure, cardiovascular effects of tyramine. The note with it: cited from earlier work.
Data set [4] addresses T2, MAO-A (Rattus norvegicus, UniProt P21396).
T2 sequence (P21396 1-526): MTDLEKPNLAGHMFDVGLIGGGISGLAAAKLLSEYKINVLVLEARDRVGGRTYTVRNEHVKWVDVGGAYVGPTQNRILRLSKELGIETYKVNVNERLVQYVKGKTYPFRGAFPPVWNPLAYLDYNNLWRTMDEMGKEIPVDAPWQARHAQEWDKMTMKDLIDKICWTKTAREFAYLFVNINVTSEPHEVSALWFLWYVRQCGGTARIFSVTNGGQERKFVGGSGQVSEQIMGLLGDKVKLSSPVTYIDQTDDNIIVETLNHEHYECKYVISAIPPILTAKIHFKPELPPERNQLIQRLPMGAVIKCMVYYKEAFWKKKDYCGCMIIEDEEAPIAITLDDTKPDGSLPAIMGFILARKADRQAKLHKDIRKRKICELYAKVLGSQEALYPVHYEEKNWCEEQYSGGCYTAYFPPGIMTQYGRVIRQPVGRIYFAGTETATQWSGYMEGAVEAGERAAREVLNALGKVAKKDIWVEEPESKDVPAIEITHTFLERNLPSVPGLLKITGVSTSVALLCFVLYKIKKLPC
Briefly: Inhibition of MAO activity in vivo, acute treatment, MAO-A. Also noted: MAO activity determined in brain and liver using the general technique described above; from tissue; host or cells: brain and liver of treated rats. The note with it: dose producing 50% inhibition, rat.

Data set [5] addresses T1, MAO-B. The data set is described as follows: Rat brain MAO inhibition by propargylamines (Table IA), MAO-B. The arrangement: in a rat brain preparation of MAO; from tissue; host or cells: rat brain preparation. The settings on record: ratio MAO-A / MAO-B for one epimer. It is filed as biochemical.
Data set [6] relates to MPTP-induced striatal dopamine depletions. Briefly: Suppression of MPTP-induced dopaminergic toxicity (striatal DA and DOPAC). The settings on record: striatum; MPTP-HCl 30 mg/kg s.c. alone. It is filed as in vivo, mice. The protocol:
Brains were removed and corpora striata dissected on an ice-cold glass plate and frozen on dry ice. Striatal tissues were homogenized in 0.1 M perchloric acid, and deproteinized aliquots containing dihydroxybenzylamine as an internal standard were assayed for dopamine and its major metabolite 3,4-dihydroxy-phenylacetic acid (DOPAC) using HPLC with electrochemical detection.

Data set [7] concerns rabbit jejunum. Briefly: Tyramine potentiation in rabbit jejunum preparation.
For data set [8], the system named is NMDA-induced cell death of cerebellum cells. Briefly: cells. The note with it: Rattus norvegicus, 24 h. The procedure: Procedures: Cultures of mechanically dissociated neonatal rat cerebellum. […] The cerebella are then dissociated after 20-25 passages through a sterile 13 gauge, 10 cm long stainless steel needle attached to a 5 ml syringe with an inserted 45 µm pore size nylon sieve. The dissociated cells are centrifuged at 200g for 5 minutes, the supernatant discarded and the cells resuspended in enriched medium. The cell viability is determined by the trypan blue exclusion test. […] After 4 days in culture, the media are replaced with media containing the desired test compounds. Experiments are done in duplicate and repeated 2 or 3 times. […] Nerve cell survival is evaluated by phase contrast microscopy and trypan blue staining after 24 h.

For data set [9], the system named is α-MpT-induced hypokinesia. The data set is described as follows: Reversal of α-MpT-induced hypokinesia in rats. Type of data set: in vivo. The note with it: α-MpT 100 mg/kg i.p. alone. The procedure:
The drug α-MpT is assumed to inhibit the formation of L-DOPA from tyrosine, and consequently the formation of dopamine itself. Lack of CNS dopamine is expressed as hypoactivity. Six month-old male Wistar rats (from Harlan Orkack, UK) were pretreated with saline, [R] […] Two hours later they received i.p. α-MpT at a dose of 100 mg/kg in 0.3-0.5 mL. Controls received saline. Following this, motor activity was recorded in a computerized activity cage for the duration of 10 hours. […] (+)PAI Mesylate at 2 mg/kg.

Data set [10] can be described thus: Comparative stability: visual inspection of color and form. It is filed as physicochemical. The procedure:
Comparative stability studies were carried out under sets of several accelerating conditions: I) heating at 80°C for 72, 96 or 144 hours; and II) reflux in isopropanol for 30 hours. The degradation products developed were measured by HPLC and confirmed by TLC. The results are presented in Table 9 with the relative retention time (relative to the PAI peak; RRT) as an area percentage relative to total integrated peak area.
The salts were submitted to visual inspection of color and form.

Data set [11] can be described thus: pH of 1% aqueous solution of PAI salts. Type of data set: physicochemical.
Experimental: (§1) The melting range was measured with an automatic apparatus (Mettler FP 80) and thermo-gravimetric analysis was performed on a Mettler TA 3000 system at a rate of 10°C/min in the applicable range. […] The pH was measured in a 1% aqueous solution of the PAI salts.
Data set [12] in a line: Thermo-gravimetric analysis of PAI salts. It is filed as physicochemical. The note with it: 10°C/min.
Experimental: as §1
The mark [13] stands for this setting: comparative animal tests versus (-)-deprenyl.

`C#CCNC1CCc2ccccc21` (racemic) [Rac PAI Mesylate, reference compound]: the “Score+SE” value in [1] (5.0 mg/kg i.p., listed as Racemic PAI mesylate) is “not active”.

As for `C#CCNC1CCc2ccccc21` (racemic) [Rac, N-propargyl-1-aminoindan, reference compound], the “IC-50 MAO-B P.O. BRAIN” value in data set [2] (dose producing 50% inhibition, p.o., 2h) came out at 0.29 mg/kg. The ED50 in [2] (ip, 1 h, read-out: IC-50 MAO-B I.P. BRAIN) stood at 0.22 mg/kg. In addition, in data set [2] (ip, 1 h, read-out: IC-50 MAO-B I.P. LIVER), the ED50 came out at 0.11 mg/kg. Also, the ED50 in [2] (po, 2 h, read-out: IC-50 MAO-B P.O. LIVER) turned out to be 0.09 mg/kg. Besides, in [3] (setting [13]), the blood pressure entry is given as “does not increase blood pressure” and the tachycardia entry is reported as “no significant tachycardia”. For the same compound, in [4] (i.p., 1h), the “IC-50 MAO-A I.P. BRAIN” value is given as 2.5 mg/kg and the “IC-50 MAO-A I.P. LIVER” value came out at 5 mg/kg. Besides, in data set [4] (p.o., 2h), the “IC-50 MAO-A P.O. BRAIN” value is over 5 mg/kg and the “IC-50 MAO-A P.O. LIVER” value was over 5 mg/kg.

For `C#CCNC1CCc2ccccc21` (racemic) [racemic PAI·HCl, Racemic N-propargyl-1-aminoindan hydrochloride], the “potentiation of the cardiovascular effects of tyramine” value in data set [3] (in vivo) is on record as “does not potentiate the cardiovascular effects of tyramine”.

With `C#CCN(C)C1CCCc2ccccc21` (single isomer, unassigned) [2-MPAI +, N-Methyl-N-propargyl-1-aminotetralin], the “RELATIVE POTENCY A/B” value in data set [5] came out at 8.8.

`C#CCN(C)C1CCCc2ccccc21` (single isomer, unassigned) [2-MPAI -, N-Methyl-N-propargyl-1-aminotetralin]: in data set [5], the “RELATIVE POTENCY A/B” value is 0.5.

`C#CCNC1CCCc2ccccc21` (stereo not drawn) [1-PAT R, N-propargyl-1-aminotetralin]: in data set [5], the “RELATIVE POTENCY A/B” value turned out to be 10.

Turning to `C#CCNC1CCCc2ccccc21` (stereo not drawn) [1-PAT S, N-propargyl-1-aminotetralin], in data set [5], the “RELATIVE POTENCY A/B” value is 76.

For `O=C(CCCN1CCC(O)(c2ccc(Cl)cc2)CC1)c1ccc(F)cc1` [Haloperidol, reference compound], the “Score+SE” value in [1] (haloperidol 6mg/kg s.c. alone, 3 hours after) amounted to 6.6±0.3; in data set [1] (haloperidol 6mg/kg s.c. alone, 3 hours after, listed as haloperidol), 6.6±0.03.

`CN1CC=C(c2ccccc2)CC1` [MPTP, 1-Methyl-phenyl-1,2,3,6-tetrahydropyridine]: in data set [6], the DA is reported as 53.1±6.2 ng/mg protein and the DOPAC is given as 3.2±0.3 ng/mg protein.

Consider `NC[C@H](O)c1ccc(O)c(O)c1` [Norepiniphrine], for which the Percent relaxation in data set [7] (0.002 µM) is given as 100%.

`NCCCNCCCCNCCCN` [Spermine, reference compound]: the inhibition at 0.01 µM in data set [8] (read-out: Percent Protection) was 65%. The viability at 0.01 µM in [8] (read-out: Surviving Cells) was found to be 75%.

In the case of `NCCc1ccc(O)cc1` [Tyramine], in [7] (tyramine alone 40 µM), the Percent relaxation came out at 0%.

Consider `CC(N)(Cc1ccc(O)cc1)C(=O)O` (stereo not drawn) [α-Mpt, α-methyl-p-tyrosine, reference compound], for which, in data set [9], the “% of control” value was determined as 51% and the “Score (total motor activity, 10 hours)” value is given as 8,108±810.

Take chloride: the results for the appearance entry in data set [10] (80°C/72h), in [10] (80°C/144h) and in [10] (reflux in iPrOH/30h) were “white powder”, “white powder” and “off white powder”, respectively.

As for fumarate, the pH in data set [11] was determined as 3.5. For the same compound, in data set [12], the “%Wt. loss” value was 0.2%. Also, the Solubility (water) was determined as 95 mg/mL.

Consider maleate, for which the “%Wt. loss” value in data set [12] is recorded as 0.1%. The values for the appearance entry in data set [10] (80°C/72h), in data set [10] (80°C/96h) and in data set [10] (reflux in iPrOH/30h) were “brown melted”, “brown” and “brown melted”, respectively. In addition, under “water”, the Solubility entry is “NLT 1000 mg/ml”.

Take phosphate: the results for the appearance result in data set [10] (80°C/72h), in data set [10] (80°C/144h) and in data set [10] (reflux in iPrOH/30h) were “brownish powder”, “brown powder” and “brown powder”, respectively.

With sulphate, the values for the appearance result in [10] (80°C/72h), in data set [10] (80°C/144h) and in data set [10] (reflux in iPrOH/30h) were “off white powder”, “off white powder” and “brown powder”, respectively.

For the compound tartarate, the pH in [11] was 5.5. In [12], the “%Wt. loss” value is given as “LT 0.1%”.

Regarding tosylate, the pH in data set [11] was 4.4. In addition, the “%Wt. loss” value in data set [12] is “LT 0.1%”. For the same compound, for the setting “saturated salt water solution”, the Solubility was in the range of 60 to 70 mg/mL.
